{"source": "patent US20260248833A1", "about": "“PYRIMIDINE NUCLEOSIDE TREATMENTS” (The Children`s Medical Center Corporation, priority 2022, published 2026)", "key": {"[1]": {"system": "super-telomerase cells (TERC-null 293T cells transfected with TERT and TERC)", "test": "TRF Southern blot telomere synthesis in super-telomerase cells", "type": "cell-based, human", "conditions": "treatment for 30 hours", "experimental": "(§1) Terminal Restriction Fragment Length Analysis: genomic DNA was isolated from cells using the Invitrogen Purelink Genomic DNA mini kit (Invitrogen). 1-3 μg of gDNA was digested with RsaI and HinfI for 2-3 hrs at 37° C. and loaded onto a 0.6% agarose gel followed by Southern blotting using the Telotaggg Telomere Length Assay Kit (Roche). Quantification was performed using the WALTER webtool.\ndT supplementation increases levels of dTTP and can reduce dCTP levels, leading to replication stress at high doses. Because replication stress signaling has been implicated in telomerase biology we asked whether replication stress induction explained the telomere length increases seen with dT treatment. We first tested whether telomere elongation is a universal response to replication stress-inducing compounds. […] However, cytotoxicity limited our ability to apply higher doses of replication stress-inducing compounds for time periods long enough to study telomere length changes. […] Using this system, we next asked how high-dose treatment with replication stress-inducing agents such as aphidicolin, hydroxyurea, and the TYMS inhibitor 5FU influence telomere synthesis compared to dT."}, "[2]": {"system": "pCHK1-S345 and pRPA32-S33", "test": "Immunoblot of replication stress signaling in super-telomerase cells", "type": "cell-based, human", "conditions": "highest doses, 30 hours"}, "[3]": {"system": "T-free super-telomerase expressing cells (293T TERC-null)", "test": "Slot blot of GGAAAG repeat content in cellular DNA", "type": "cell-based, human", "conditions": "5FU (10 μM) or HU (500 μM)", "experimental": "Slot blotting: slot blotting was performed as described with minor modifications. Briefly, DNA concentration was normalized to 20 ng/μl using a nanodrop spectrophotometer. 3.3 μl of DNA was added to 16.5 μl of denaturation solution (0.5 M NaOH, 1.5 M NaCl) and heated to 55° C. for 30 minutes. 495 μl of neutralization solution (0.5 M Tris-HCl, 1.5 M NaCl) was added to denatured DNA and 156 μl of this solution was added in triplicate to different slots on a Bio-Dot SF Apparatus (Bio-Rad) and blotted onto Hybond N+ Membrane (Cytivia). Membrane preparation and washing was performed as described. For samples with paired GGTTAG and GGAAAG slot blots, the above recipe was doubled, and 156 μl was loaded onto parallel membranes in triplicate on each membrane. After blotting, membranes were hybridized and detected as described above for TRF Southern blots using the probe indicated in the figure. Blots were analyzed using ImageJ. Statistical analysis was performed using Graphpad prism V9.1.0."}, "293T cells": {"system": "293T cells", "test": "Terminal restriction fragment (TRF) Southern blot telomere length, 293T cells", "type": "cell-based, human", "experimental": "(§2) Cell culture: K562 cells (ATCC) were grown in RPMI1 1640 (Gibco) media supplemented with 10% fetal bovine serum. 293T cells (ATCC) were grown in DMEM (Gibco) supplemented with 10% fetal bovine serum, and were subcultured using 0.05% trypsin (Gibco). iPSCs were derived, characterized and cultured as previously described. iPSCs were grown in Essential 8 Media (Life Technologies) supplemented with the ROCK inhibitor Y271632 (Stem Cell Technologies) at 10 μM on plates coated with hES qualitied Matrigel matrix (Corning) and were subcultured using Accutase (Stem Cell Technologies).\nas §1"}, "K562 cells": {"system": "K562 cells", "test": "Terminal restriction fragment (TRF) Southern blot telomere length, K562 cells", "type": "cell-based, human", "conditions": "K562 cells", "experimental": "as §2, §1"}, "[4]": {"conditions": "co-administration with dT; cited from earlier work"}, "telomere length": {"system": "telomere length", "test": "Telomere length with cytidine and uridine (FIG. 23)", "type": "cell-based"}, "[5]": {"conditions": "at pH of about 7; cited from earlier work"}, "[6]": {"conditions": "10 days, doses up to those maximally tolerated"}, "[7]": {"conditions": "8 days, doses up to those maximally tolerated"}, "[8]": {"conditions": "100 μM of the indicated deoxynucleoside(s) for 9 days"}, "[9]": {"conditions": "100 μM of the indicated deoxynucleoside(s) for 8 days"}, "[10]": {"conditions": "baseline 16 μM dT, plus 100 μM additional dT or 1 mM dU, 10 days"}}, "note": "Entries after “also recorded” stand apart in the source; their conditions may differ.", "data": [{"molecule": "O=c1[nH]cc(F)c(=O)[nH]1", "note": "[5FU, 5-fluorouracil, reference compound]", "values": [{"measurement": "telomere repeat synthesis / telomere elongation by telomerase", "setting": "[1]", "result": "ablated telomere elongation by telomerase; also recorded: completely inhibited telomere elongation; also recorded: ablated telomere lengthening in super-telomerase cells"}, {"measurement": "replication stress signaling", "setting": "[2]", "result": "induced similar levels of replication stress signaling"}, {"measurement": "levels of GGAAAG repeats", "setting": "[3]", "result": "reduced levels of GGAAAG repeats; also recorded: inhibited T-free telomerase activity"}]}, {"molecule": "O=C1NC(=NCc2cccs2)S/C1=C\\c1ccc2ncccc2c1", "note": "[RO-3306, reference compound]", "values": [{"measurement": "telomere length", "setting": "293T cells; [6]", "result": "No changes were found in telomere length"}, {"measurement": "telomere length", "setting": "K562 cells; [7]", "result": "No changes were found in telomere length"}]}, {"molecule": "C[C@@]1(CO)[C@H](O)CC[C@@]2(C)[C@H]1CC[C@H]1C[C@@H]3C[C@@]12CC[C@]3(O)CO", "note": "[aphidicolin, reference compound]", "values": [{"measurement": "telomere repeat synthesis / telomere elongation by telomerase", "setting": "[1]", "result": "drove detectable increases in telomere length, albeit to a lesser extent than dT"}, {"measurement": "replication stress signaling", "setting": "[2]", "result": "induced similar levels of replication stress signaling"}, {"measurement": "telomere length", "setting": "293T cells; [6]", "result": "telomere elongation after 10 days"}]}, {"molecule": "Nc1ccn([C@@H]2O[C@H](CO)[C@@H](O)[C@H]2O)c(=O)n1", "note": "[cytidine, 4-amino-1-[(2R,3R,4S,5R)-3,4-dihydroxy-5-(hydroxymethyl)oxolan-2-yl]pyrimidin-2 (1H)-one]", "values": [{"measurement": "toxicity caused by dT", "setting": "[4]", "result": "reduce toxicity caused by dT"}, {"measurement": "telomere length", "setting": "telomere length", "result": "increase telomere length"}]}, {"molecule": "Nc1ncnc2c1ncn2[C@H]1C[C@H](O)[C@@H](CO)O1", "note": "[dA, deoxyadenosine, reference compound]", "values": [{"measurement": "telomere length", "setting": "293T cells; [8]", "result": "but not deoxyadenosine (dA) or deoxyguanosine (dG), rapidly and robustly increases telomere length"}, {"measurement": "telomere length", "setting": "K562 cells; [9]", "result": "but not deoxyadenosine (dA) or deoxyguanosine (dG), rapidly and robustly increases telomere length"}]}, {"molecule": "Nc1ccn([C@H]2C[C@H](O)[C@@H](CO)O2)c(=O)n1", "note": "[dC, 4-azmino-1-[(2R,4S,5R)-4-hydroxy-5-(hydroxymethyl)oxolan-2-yl]pyrimidin-2 (1H)-one]", "values": [{"measurement": "toxicity caused by dT", "setting": "[4]", "result": "reduce toxicity caused by dT; also recorded: reduces toxicity of dT and improves cell growth compared to dT alone"}, {"measurement": "water solubility", "setting": "[5]", "result": "about 870 mg/mL"}]}, {"molecule": "Nc1nc2c(ncn2[C@H]2C[C@H](O)[C@@H](CO)O2)c(=O)[nH]1", "note": "[dG, deoxyguanosine, reference compound]", "values": [{"measurement": "telomere length", "setting": "293T cells; [8]", "result": "but not deoxyadenosine (dA) or deoxyguanosine (dG), rapidly and robustly increases telomere length"}, {"measurement": "telomere length", "setting": "K562 cells; [9]", "result": "but not deoxyadenosine (dA) or deoxyguanosine (dG), rapidly and robustly increases telomere length"}]}, {"molecule": "O=c1ccn([C@H]2C[C@H](O)[C@@H](CO)O2)c(=O)[nH]1", "note": "[dU, 1-((2R,4S,5R)-4-Hydroxy-5-(hydroxymethyl)tetrahydrofuran-2-yl)pyrimidine-2,4 (1H,3H)-dione]", "values": [{"measurement": "concentration giving telomere elongation to a degree similar to dT", "setting": "293T cells; 10× the dT concentration", "result": 1, "unit": "mM"}, {"measurement": "telomere length with baseline of 16 μM dT", "setting": "293T cells; added dU, 10 days", "result": "increased telomere length"}, {"measurement": "telomere lengthening in TYMS-knockout cells", "setting": "293T cells; [10]", "result": "no longer able to promote telomere lengthening"}, {"measurement": "telomere length", "setting": "293T cells; dU 1 mM, 10 days (FIG. 9)", "result": "elongate telomeres to a degree similar to dT"}, {"measurement": "telomere length", "setting": "293T cells; dU 1 mM, 10 days (FIG. 9), listed as Deoxyuridine", "result": "promotes telomere elongation"}, {"measurement": "telomere length with baseline of 16 μM dT", "setting": "K562 cells; added dU, 10 days", "result": "increased telomere length"}, {"measurement": "telomere lengthening in TYMS-knockout cells", "setting": "K562 cells; [10]", "result": "no longer able to promote telomere lengthening"}, {"measurement": "water solubility", "setting": "[5]", "result": "about 5 mg/ml"}]}, {"molecule": "Nc1nc2ncc(CNc3ccc(C(=O)N[C@@H](CCC(=O)O)C(=O)O)cc3)nc2c(=O)[nH]1", "note": "[folate, folic acid, reference compound]", "values": [{"measurement": "telomere length", "setting": "293T cells; folate supplementation up to 1 mM, 10 days", "result": "did not yield telomere elongation"}, {"measurement": "telomere length", "setting": "293T cells; folate supplementation up to 1 mM, 10 days, listed as folic acid", "result": "but not folic acid supplementation promotes telomere elongation"}]}, {"molecule": "NC(=O)NO", "note": "[hydroxyurea, reference compound]", "values": [{"measurement": "telomere repeat synthesis / telomere elongation by telomerase", "setting": "[1]", "result": "ablated telomere elongation by telomerase"}, {"measurement": "replication stress signaling", "setting": "[2]", "result": "induced similar levels of replication stress signaling"}, {"measurement": "telomere length", "setting": "293T cells; [6]", "result": "No changes were found in telomere length; also recorded: did not change telomere length after 10 days"}, {"measurement": "telomere length", "setting": "K562 cells; [7]", "result": "No changes were found in telomere length"}, {"measurement": "levels of GGAAAG repeats", "setting": "[3]", "result": "reduced levels of GGAAAG repeats"}]}, {"molecule": "O=c1ccn([C@@H]2O[C@H](CO)[C@@H](O)[C@H]2O)c(=O)[nH]1", "note": "[uridine, 1-[(2R,3R,4S,5R)-3,4-Dihydroxy-5-(hydroxymethyl)oxolan-2-yl]pyrimidine-2,4 (1H,3H)-dione]", "values": [{"measurement": "telomere length", "setting": "telomere length", "result": "increase telomere length"}]}]}
